Test results published in patent US20070207228A1, “Composition for Regulating the Trophism of Hair Follicles and the Cutaneous Production of Sebum and Use Thereof in Androgenic Alopecia” (priority 2004, published 2007).
Values joined by “and” are separate entries in the source; they are usually repeats but may differ in a detail not shown here. Equal entries are not always repeated.

Test system: 5-α-reductase
Test: in vivo inhibiting activity of 5-α-reductase: plasmatic DHT concentration after oral administration
Set-up: species or system Sprague-Dawley rats
Protocol: Determination in vivo of the inhibiting activity of 5-α-reductase of an extract of Boehmeria nippononivea.
For the in-vivo study of the inhibition of 5-α-reductase, Sprague-Dawley (Charles River Italia) male adult rats were used having a body weight of 200-250 g.
The animals were stalled under standard conditions: at a temperature of 22/23° C., with 65% relative humidity, by exposing them to light cycles of 12 h light/12 h darkness.
A standard diet in pellets (standard diet, Charles River) was administered to the rats, together with water ad libitum.
Samples were taken from the rear-orbital plexus, immediately before the pharmacological treatment (T0) and then at 3, 6 and 8 hours after administration.
The administration of the substance being tested was effected orally.
Furthermore, contemporarily with each sampling of the treated animals, samples were also taken from non-treated animals to determine the basal analyte level.
Plasma obtained from the whole blood, treated with EDTA after centrifugation, was preserved at −20° C. until analysis.
The plasmatic concentrations of DHT (dihydrotestosterone) were determined by a commercial kit (DSL, Chematil, Angri, SA) after extraction of the samples.
All the samples of an experimental set were analyzed together to reduce the inter analytical variability.

`CC(C)(C)NC(=O)[C@H]1CC[C@H]2[C@@H]3CC[C@H]4NC(=O)C=C[C@]4(C)[C@H]3CC[C@]12C` [Finasteride] was tested, and the “plasmatic DHT concentration, individual animals” value (Finasteride 1 mg oral, 3 hrs) was 298.09 and 505.28 and 300.00 and 569.62 and 404.63 and 530.00, the “plasmatic DHT concentration, average” value (Finasteride 1 mg oral, 3 hrs, n = 6) was 434.603 and the “plasmatic DHT concentration, individual animals” value (Finasteride 1 mg oral, 6 hrs) was 404.13 and 565.00 and 379.59 and 592.06 and 148.51 and 420.07. For the same compound, the “plasmatic DHT concentration, average” value (Finasteride 1 mg oral, 6 hrs, n = 6) was 418.227, the “plasmatic DHT concentration, individual animals” value (Finasteride 1 mg oral, 8 hrs) was 706.70 and 140.06 and 503.90 and 530.07 and 173.11 and 110.00 and the “plasmatic DHT concentration, average” value (Finasteride 1 mg oral, 8 hrs, n = 6) was 360.640. The “plasmatic DHT concentration, individual animals” value (Finasteride 5 mg oral, 3 hrs) was 217.10 and 618.58 and 151.18 and 640.97 and 924.20 and 569.38, the “plasmatic DHT concentration, average” value (Finasteride 5 mg oral, 3 hrs, n = 6) was 520.235 and the “plasmatic DHT concentration, individual animals” value (Finasteride 5 mg oral, 6 hrs) was 205.21 and 103.62 and 54.35 and 60.67 and 49.67 and 128.25 and 176.92 and 81.23. The “plasmatic DHT concentration, average” value (Finasteride 5 mg oral, 6 hrs, n = 8) was 107.490, the “plasmatic DHT concentration, individual animals” value (Finasteride 5 mg oral, 8 hrs) was 201.56 and 108.76 and 745.40 and 576.60 and 250.90 and 300.12 and the “plasmatic DHT concentration, average” value (Finasteride 5 mg oral, 8 hrs, n = 6) was 363.890. The “trend of the DHT concentration following administration” value (oral, 3, 6 and 8 hours after administration) was 8 hours after treatment, increases returning to the basal levels.
